{"source": "ChEMBL document CHEMBL4406818", "about": "“Xanthone derivatives from the leaves of Garcinia oligantha” (2019)", "key": {"[1]": {"tested_on": "LNCaP", "test": "Cytotoxicity against quiescent human LNCAP cells assessed as induction of cell death at 20 uM measured after 24 hrs by SYBR green dye based fluorescence analysis", "format": "functional"}, "[2]": {"tested_on": "LNCaP", "test": "Induction of apoptosis in quiescent human LNCAP cells assessed as decrease in caspase-3 protein expression at 8 to 12 uM measured after 24 hrs by Western blot analysis", "format": "functional, cell-based"}, "[3]": {"tested_on": "LNCaP", "test": "Induction of apoptosis in quiescent human LNCAP cells assessed as decrease in Bcl-2 protein expression at 8 to 12 uM measured after 24 hrs by Western blot analysis", "format": "functional, cell-based"}, "[4]": {"tested_on": "LNCaP", "test": "Induction of apoptosis in quiescent human LNCAP cells assessed as nucleus fragmentation at 5 to 12 uM measured after 24 hrs by phase contrast microscopy", "format": "functional, cell-based"}, "[5]": {"tested_on": "LNCaP", "test": "Induction of cell death in quiescent human LNCAP cells assessed as proportion of dead cells at 10 uM measured after 24 hrs by propidium iodide staining based flow cytometry analysis (reference value: 4.90 %)", "format": "functional"}, "[6]": {"tested_on": "LNCaP", "test": "Induction of cell death in quiescent human LNCAP cells assessed as proportion of live cells at 10 uM measured after 24 hrs by propidium iodide staining based flow cytometry analysis (reference value: 95.1%)", "format": "functional"}, "[7]": {"tested_on": "LNCaP", "test": "Induction of apoptosis in quiescent human LNCAP cells assessed as nucleus fragmentation at 5 to 12 uM measured after 24 hrs by Hoechst staining based fluorescent microscopy", "format": "functional, cell-based"}, "[8]": {"tested_on": "LNCaP", "test": "Induction of apoptosis in quiescent human LNCAP cells assessed as decrease in caspase-9 protein expression at 8 to 12 uM measured after 24 hrs by Western blot analysis", "format": "functional, cell-based"}, "[9]": {"tested_on": "LNCaP", "test": "Induction of cell death in quiescent human LNCAP cells assessed as proportion of dead cells at 5 uM measured after 24 hrs by propidium iodide staining based flow cytometry analysis (reference value: 4.90 %)", "format": "functional"}, "[10]": {"tested_on": "LNCaP", "test": "Induction of cell death in quiescent human LNCAP cells assessed as proportion of live cells at 7.5 uM measured after 24 hrs by propidium iodide staining based flow cytometry analysis (reference value: 95.1%)", "format": "functional"}, "[11]": {"tested_on": "LNCaP", "test": "Cytotoxicity against quiescent human LNCAP cells assessed as induction of cell death measured after 24 hrs by […] dye based fluorescence analysis", "format": "functional"}, "[12]": {"tested_on": "LNCaP", "test": "Induction of cell death in quiescent human LNCAP cells assessed as proportion of live cells at 5 uM measured after 24 hrs by propidium iodide staining based flow cytometry analysis (reference value: 95.1%)", "format": "functional"}, "[13]": {"tested_on": "LNCaP", "test": "Induction of apoptosis in quiescent human LNCAP cells assessed as chromatin condensation at periphery of nucleus at 5 to 12 uM measured after 24 hrs by phase contrast microscopy", "format": "functional, cell-based"}, "[14]": {"tested_on": "LNCaP", "test": "Induction of apoptosis in quiescent human LNCAP cells assessed as chromatin condensation at periphery of nucleus at 5 to 12 uM measured after 24 hrs by Hoechst staining based fluorescent microscopy", "format": "functional, cell-based"}, "[15]": {"tested_on": "LNCaP", "test": "Induction of apoptosis in quiescent human LNCAP cells assessed as increase in caspase-3 activity at 8 to 12 uM measured after 24 hrs", "format": "functional, cell-based"}, "[16]": {"tested_on": "LNCaP", "test": "Induction of cell death in quiescent human LNCAP cells assessed as proportion of dead cells at 7.5 uM measured after 24 hrs by propidium iodide staining based flow cytometry analysis (reference value: 4.90 %)", "format": "functional"}, "[17]": {"tested_on": "LNCaP", "test": "Induction of cell death in quiescent human LNCAP cells assessed as proportion of dead cells at 20 uM measured after 24 hrs by propidium iodide staining based flow cytometry analysis (reference value: 4.90 %)", "format": "functional"}, "[18]": {"tested_on": "LNCaP", "test": "Induction of cell death in quiescent human LNCAP cells assessed as proportion of live cells at 20 uM measured after 24 hrs by propidium iodide staining based flow cytometry analysis (reference value: 95.1%)", "format": "functional"}}, "note": "Activity calls are given as the source filed them. The calls are words filed in the database; no cut-off is given here."}
{"smiles": "COC(=O)C12OC(=O)C(CC=C(C)C)(CC=C(C)C)C1C(=O)c1c(O)cc3c(c1O2)C=CC(C)(C)O3", "note": "(racemic)", "values": [{"measurement": "Activity", "setting": "[1]", "value": "Active"}]}
{"smiles": "COC(=O)C1(O)C(=O)C(CC=C(C)C)(CC=C(C)C)c2c1oc1c3c(cc(O)c1c2=O)OC(C)(C)C=C3", "note": "(stereo unspecified)", "values": [{"measurement": "Activity", "setting": "[1]", "value": "Active"}]}
{"smiles": "CC(C)=CCC/C(C)=C/C[C@@]12C[C@H](C(C)(C)O)OC1=C(O)C(=O)c1oc3c4c(cc(O)c3c(=O)c12)OC(C)(C)C=C4", "values": [{"measurement": "Activity", "setting": "[1]", "value": "Active"}]}
{"smiles": "CC(C)=CCCC(C)(O)[C@@H]1C[C@@]23CC=C(C)CO[C@]2(O1)C(=O)c1oc2c4c(cc(O)c2c(=O)c13)OC(C)(C)C=C4", "note": "(stereo partly specified)", "values": [{"measurement": "Activity", "setting": "[1]", "value": "Active"}]}
{"smiles": "COC(=O)c1oc2c(CC=C(C)C)c(O)cc(O)c2c(=O)c1C(CC=C(C)C)(CC=C(C)C)C(=O)O", "values": [{"measurement": "Activity", "setting": "[1]", "value": "Active"}]}
{"smiles": "COC(=O)[C@]1(O)C(=O)[C@](CC=C(C)C)(C/C=C(\\C)CCC=C(C)C)c2c1oc1c(CC=C(C)C)c(O)cc(O)c1c2=O", "values": [{"measurement": "Activity", "setting": "[2]", "value": "Active"}, {"measurement": "Activity", "setting": "[3]", "value": "Active"}, {"measurement": "Activity", "setting": "[4]", "value": "Active"}, {"measurement": "Activity", "setting": "[5]", "value": 70.1, "unit": "%"}, {"measurement": "Activity", "setting": "[1]", "value": "Active"}, {"measurement": "Activity", "setting": "[6]", "value": 29.9, "unit": "%"}, {"measurement": "Activity", "setting": "[7]", "value": "Active"}, {"measurement": "Activity", "setting": "[8]", "value": "Active"}, {"measurement": "Activity", "setting": "[9]", "value": 12.4, "unit": "%"}, {"measurement": "Activity", "setting": "[10]", "value": 49.9, "unit": "%"}, {"measurement": "Activity", "setting": "[11]", "value": "Dose-dependent effect"}, {"measurement": "Activity", "setting": "[12]", "value": 87.6, "unit": "%"}, {"measurement": "Activity", "setting": "[13]", "value": "Active"}, {"measurement": "Activity", "setting": "[14]", "value": "Active"}, {"measurement": "Activity", "setting": "[15]", "value": "Active"}, {"measurement": "Activity", "setting": "[16]", "value": 50.1, "unit": "%"}]}
{"smiles": "CC(C)=CCCC(C)(O)[C@@H]1C[C@@]2(CC=C(C)C)C(=C(O)C(=O)c3oc4c5c(cc(O)c4c(=O)c32)OC(C)(C)C=C5)O1", "note": "(stereo partly specified)", "values": [{"measurement": "Activity", "setting": "[1]", "value": "Active"}]}
{"smiles": "CC(C)=CCc1c(O)cc(O)c2c(=O)c3c(oc12)C(=O)[C@@]1(O)C(=O)[C@]3(CC=C(C)C)C[C@@H]2C(C)(C)CCC[C@]21C", "values": [{"measurement": "Activity", "setting": "[1]", "value": "Active"}]}
{"smiles": "CC(=O)O[C@H]1C(=O)[C@@]2(C)[C@H]([C@H](OC(=O)c3ccccc3)[C@]3(O)C[C@H](OC(=O)[C@H](O)[C@@H](NC(=O)c4ccccc4)c4ccccc4)C(C)=C1C3(C)C)[C@]1(OC(C)=O)CO[C@@H]1C[C@@H]2O", "note": "[PACLITAXEL]", "values": [{"measurement": "Activity", "setting": "[1]", "value": "inactive"}, {"measurement": "Activity", "setting": "[17]", "value": 7.08, "unit": "%"}, {"measurement": "Activity", "setting": "[18]", "value": 92.9, "unit": "%"}]}
